This is an account of results in patent publication US20160297828A1, “SPIROCYCLIC COMPOUNDS CONTAINING SPIRO[INDOLYL-3,1'-PYRROLO[3,4-C]PYRROLE] CORE AND SULPHUR-CONTAINING AMINO ACID RESIDUES” (priority 2013, published 2016).

“And” between values parts separate entries of the source, which are not always exact repeats. Equal entries are not always repeated.

In experiment [1] the test system is neuron-specific enolase (NSE). The experiment can be described thus: Neuron-specific enolase (NSE) activity in rats with bilateral carotid occlusion (ELISA). In kind it is in vivo. The note with it: BCO; for NSE activity (dynamics of neurodestructive changes): n = 7. The method, then: The derivative of 3,2′-spiro-pyrrolo-2-oxindole was studied in conventionally effective dose of 10 mg/kg […] (iv)—dose that by the results of our previous study provided maximum antihypoxic activity of the SI-86compound. Reference drugs were injected intraperitoneally (ip). […] BCO was made to rats of control pathology and as therapy 0.9% NaCI solution was administered calculated for 2 ml/kg ip.
Pseudooperative rats were exposed to all interventions (anesthesia, skin incision, dissection of vessels) except arteries ligation that leveled traumatic effect of experimental conditions.
To determine neurospecific enolase, specific marker of cerebral ischemia,—to the period (4 th and 21 st day of CVA) in rat's blood was sampled by sagittal sinus puncture (0.2-0.4 ml). NSE activity was measured by ELISA using a set NSE EIA KIT (DAI, USA) on the instrument of the company “Hipson” (Czech Republic).
Background: An ELISA detects its analyte on a solid surface through an enzyme-linked reagent.

For another experiment, the system named is 11β-corticosterone. The experiment can be described thus: 11β-corticosterone level in venous blood of rats with bilateral carotid occlusion (ELISA). As to conditions: for dynamics in percents in relation to control pathology group / dynamics in percents in relation to the group of pseudo-operated animals / 11β-corticosterone level in venous blood: BCO. Type of experiment: in vivo, Wistar rats. Here is the method:
The neuroprotective effect of 3,2′-spiro-pyrrolo-2-oxindole derivative (SI-86 compound) was studied in Wistar rats on a model of cerebrovascular accident (CVA) of ischemic type in archencephalic pool forming bilateral carotid occlusion (BCO) by carotid artery ligation. The ligations for common carotid arteries was imposed under propofol anesthesia at a dose of 60 mg/kg intraperitoneally (ip), using surgical access to the front of the neck cutting through its white line. The chosen model allows to reproduce the clinical pattern of ischemic stroke and is adequate for clinical study of potential neuroprotective substances (Drug discovery and Evaluation: pharmacological assays/H. Gerhard Vogel (ed.).-2nd ed. 1453p.).
The derivative of 3,2′-spiro-pyrrolo-2-oxindole was investigated in conventionally effective dose of 10 mg/kg […] (iv)—dose which is provided maximum antihypoxic activity of SI-86 compound by the results of our previous study. The reference drugs were injected intraperitoneally (ip). BCO was applied to the rats of control pathology and 0.9% NaCI solution was administered as therapy calculated for 2 ml/kg ip.
Pseudo-operated rats were exposed to all interventions (anesthesia, skin incision, dissection of vessels) except arteries ligation that leveled traumatic impact of experimental conditions.
To determine a corticosterone level (species-specific cortisol analogue in rats, which is also a substrate for 11β-HSD1) in the corresponding period (4 th and 21 st CVA day) in rat by sagittal sinus puncture, blood was sampled (0.2-0.4 ml). The cortisol level was measured by ELISA using a CORTICOSTERONEE KIT set (Germany) on the instrument of the company “Hipson” (Czech Republic).

Experiment [2] concerns rats with intracerebral hemorrhage. As to the kind of experiment: Conditioned response of passive avoidance (CRPA) in rats with intracerebral hemorrhage. The note with it: 21st day, n = 15; for Latent period for entrance into dark compartment, prior study: SI-86 10 mg/kg iv, mexydol 100, citocoline 250, actovegin 16, pyracetam 400 mg/kg ip. In kind it is in vivo. Here is the method:
(§1) Neuroprotective effect of 3,2′-spiro-pyrrolo-2-oxindole derivative (SI-86 compound) was studied on IUD model of moderate severity modeled under propofol anesthesia (60 mg/kg intraperitoneally (ip)) by autoblood administration into the brain internal capsule (stereotactic coordinates of the projection: H=7.0 mm, L=3.0 mm, A=1.5 mm from bregma) ([…]) (Method for reproduction of intracerebral hemorrhage in rats/O. K. Yarosh, S. V. Kyrychenko, S. P. Halimonchyk [et al.]//Circulation and hemostasis.-2005.-No. 1.-P. 77-81). The chosen model allows to reproduce clinical pattern of […] and is adequate for clinical study of potential neuroprotective agents.
(§2) As comparators the following drugs were used: mexydol (“Mexydol” UC Pharmasoft, Russia), 100 mg/kg; citicoline (“Somazina” Ferrer International, SA, Spain), 250 mg/kg; aktovegin (“Aktovegin”, Nycomed, Austria), 16 mg/kg pyracetam (“Pyracetam” Darnitsa, Ukraine), 400 mg/kg. According to the latest clinical guidelines regarding the treatment of patients with CVA approved by the Ministry of Health of Ukraine (Order No. 602 dated 3 Aug. 2012), all these drugs are allowed to be included into schemes for intensive patients therapy with CVA as neuroprotective agents. They were used at recommended doses for preclinical studies (McGrow C. P. Experimental Cerebral Infarction Effects of Pentobarbital in Mongolian Gerbils/C. P. McGrow//Arch. Neurol.-1977.-Vol. 34, No. 6.-P. 334-336). Experimental therapy of acute cerebral ischemia with SI-86 compound and comparator started 1 hour after IUD once a day for 21 days. The SI-86 derivative was investigated in conventionally effective dose of 10 mg/kg […] (iv)-dose that according to the results of our previous study provides maximum antihypoxic activity of SI-86 compound. Reference drugs were injected intraperitoneally (ip). Rats of control pathology group were injected by autoblood and as therapy 0.9% NaCI solution was administered calculated for 2 ml/kg […].
(§3) Evaluation of the ability of animals to learn and memorize of aversive stimulus was examined in the test of conditioned response of passive avoidance (CRPA). The technique is based on innate rat instinct to limited shadowy space. The study in rats was conducted in two-compartment unit consisted of two sections—light and dark. An animal was arranged into light compartment, fixing latency time for entering into the dark compartment, wherein rat received current irritation and ran in the light compartment. CRPA retention was tested every other day under latency time change of rat entering into the dark compartment. Also the number of animals was noted not fully entered the dark chamber. Cerebroprotective efficiency criteria of studied compounds were also animal death term (days) and their mortality rate (in %).

Experiment [3] has the same test system. The experiment can be described thus: Neurological deficit (C. P. McGrow stroke-index scale) in rats with intracerebral hemorrhage. As to conditions: n = 15. Type of experiment: in vivo. Here is the method:
as §1, §2
Neurological deficit in animals with acute CVA respectively in acute (4th day) and recovery (21 st day) periods was measured on C. P. McGrow stroke-index scale. The state severity was determined by amount of relevant points: to 3 points-mild, 3 to 7 points-average, above 7 points-severe degree. Pareses, paralyses of limbs, tremors, circus movement, ptoses, lateral positions, ability of rats to be maintained at the core of 15 cm diameter, rotating at the rate of 3 rpm were noted. The animals were tested daily by displaying the amount of points:
one-sided semi-ptosis—0.5 points; one-sided ptosis—1 point; tremor—0.5 points; circus movements—0.5 points; pareses of limbs (for each limb)—1 point; paralyses of limbs (for each limb)—2 points; lateral position—3 points; disability to maintain on rotating rod during 4 minutes—3 points.

The subject of experiment [4] is neuron-specific enolase (NSE). The experiment can be described thus: Neuron-specific enolase (NSE) activity in rats with intracerebral hemorrhage (ELISA). In kind it is in vivo. The note with it: for NSE activity (dynamics of neurodestructive changes): acute cerebral hemorrhage, n = 7; for enzyme activity decreased in relation to the control pathology group: hemorrhage. The method, then: The derivative of 3,2′-spiro-pyrrolo-2-oxindole was investigated in conventionally effective dose of 10 mg/kg […] (iv)—dose that according to the results of our previous studies provided maximum antihypoxic activity of SI-86 compound. Reference drugs were injected intraperitoneally (ip). […] Autoblood was injected to rats with control pathology and 0.9% NaCI solution was administered as therapy calculated for 2 ml/kg ip.
Psevdooperated rats were exposed to all interventions (anesthesia, craniotomy) with the exception of autoblood administration that leveled traumatic impact of experimental conditions.
To determine neuron-specific enolase, the specific marker of cerebral ischemia,—for corresponding period (4 th and 21 st day of CVA) in rats, blood was sampled by sagittal sinus puncture (0.2-0.4 ml). NSE activity was measured by ELISA using a set NSE EIA KIT (DAI, USA) on the instrument of the company “Hipson” (Czech Republic).

For experiment [5], the system named is rats with intracerebral hemorrhage. The experiment can be described thus: Lethality of rats with intracerebral hemorrhage of average severity. In kind it is in vivo. Here is the method:
The chosen model allows to reproduce clinical pattern of […] and is adequate for clinical study of potential neuroprotective agents.
As comparators the following drugs were used: mexydol (“Mexydol” UC Pharmasoft, Russia), 100 mg/kg; citicoline (“Somazina” Ferrer International, SA, Spain), 250 mg/kg; aktovegin (“Aktovegin”, Nycomed, Austria), 16 mg/kg pyracetam (“Pyracetam” Darnitsa, Ukraine), 400 mg/kg. According to the latest clinical guidelines regarding the treatment of patients with CVA approved by the Ministry of Health of Ukraine (Order No. 602 dated 3 Aug. 2012), all these drugs are allowed to be included into schemes for intensive patients therapy with CVA as neuroprotective agents. They were used at recommended doses for preclinical studies (McGrow C. P. Experimental Cerebral Infarction Effects of Pentobarbital in Mongolian Gerbils/C. P. McGrow//Arch. Neurol.-1977.-Vol. 34, No. 6.-P. 334-336). Experimental therapy of acute cerebral ischemia with SI-86 compound and comparator started 1 hour after IUD once a day for 21 days. […] Reference drugs were injected intraperitoneally (ip). Rats of control pathology group were injected by autoblood and as therapy 0.9% NaCI solution was administered calculated for 2 ml/kg iv.
Pseudo-operated rats were exposed to all interventions (anesthesia, craniotomy) excluding autoblood administration that leveled traumatic impact of experimental conditions.
as §3
Quantitative data were processed using statistical StatPlus 2009 processing. The statistical significance of differences was assessed by Fisher's angular transformation (lethality outcome), also parametric t Student criterion were used in case of normal distribution of variation series, nonparametric W White criterion—in its absence.

The mark [6] stands for this setting: day 4, SI-86 10 mg/kg iv, citocoline 250 mg/kg ip.
Where [7] appears, read: day 4, SI-86 10 mg/kg iv, mexydol 100, citocoline 250, actovegin 16, pyracetam 400 mg/kg ip.
Where [8] appears, read: 12 h, SI-86 10 mg/kg iv, mexydol 100, citocoline 250, actovegin 16, pyracetam 400 mg/kg.

On to `C[N+](C)(C)CCOP(=O)(O)OP(=O)([O-])OC[C@H]1O[C@@H](n2ccc(N)nc2=O)[C@H](O)[C@@H]1O` [citocoline, reference compound], for which the “enzyme activity decreased in relation to the control pathology group” value turned out to be 1.27 times in experiment [1] (96 hours), 2.03 times in experiment [1] (21 days), 2.2 times in experiment [4] (96 hours) and 3.1 times in experiment [4] (21 days). Besides, the “NSE activity (dynamics of neurodestructive changes)” value turned out to be 0.972 ± 0.010 in experiment [1] (setting [6]); 0.385 ± 0.010 in experiment [1] (day 21, same doses); 1.292 ± 0.069 in experiment [4] (setting [6]); 0.309 ± 0.05 in experiment [4] (day 21, same doses). In addition, the “dynamics in percents in relation to control pathology group” value with 11β-corticosterone (day 4) is “[−41.7%]”; in the experiment on 11β-corticosterone (day 21), “[−30.2%]”. Besides, the “dynamics in percents in relation to the group of pseudo-operated animals” value with 11β-corticosterone (day 4) was “(+126.9%)”; with 11β-corticosterone (day 21), “(+152.7%)”. Also, the “11β-corticosterone level in venous blood” value in the experiment with 11β-corticosterone (setting [6]) is listed as 272.79 ± 1.95°* ng/ml; in the experiment on 11β-corticosterone (day 21, same doses), 235.52 ± 7.82°*^• ng/ml. The “corticosterone concentration in sagittal sinus blood decreased in relation to the control pathology group” value with 11β-corticosterone (after 96 hours) was determined as 41.7%; in the experiment on 11β-corticosterone (after 21 days) it was 30.2%. The “Latent period for entrance into dark compartment, prior study” value in experiment [2] came out at 12.50 ± 0.75°*^# s. Besides, the “neurological deficit, average point under C. P. McGrow scale” value in experiment [3] (setting [7]) is 5.0 points and 5.00 ± 0.18°*^#$ points; in experiment [3] (day 21, same doses), 3.1 points and 3.10 ± 0.15°*^#&$ points.

Turning to `NC(=O)CN1CCCC1=O` [pyracetam], the “Lethality, %” value was 4.9% in experiment [5] (setting [8]); 14.6% in experiment [5] (24 h, same doses); 22% in experiment [5] (48 h, same doses); 24.4% in experiment [5] (72 h, same doses); 27.5% in experiment [5] (96 h, same doses). For the same compound, the “Lethality, abs.” value in experiment [5] (setting [8]) was determined as 2; in experiment [5] (24 h, same doses) it was 6; in experiment [5] (48 h, same doses), 9; in experiment [5] (72 h, same doses), 10; in experiment [5] (96 h, same doses), 11. For the same compound, the “reduction of mortality in rats at the end of the observation period relative to control” value in experiment [5] (within 4 days of therapy, same doses) is recorded as “no significant impact”. Moreover, in experiment [2], the “Latent period for entrance into dark compartment, prior study” value turned out to be 15.90 ± 0.51°* s. Further, in experiment [2] (same doses), the “Latent period for entrance into dark compartment, 24 hours after study” value was found to be 71.10 ± 2.21 s. For the same compound, the “neurological deficit, average point under C. P. McGrow scale” value in experiment [3] (setting [7]) is 6.90 ± 0.39° points; in experiment [3] (day 21, same doses), 4.1 points and 4.10 ± 0.15°* points.
